From ChEMBL document CHEMBL4229403, “Protein Arginine Methyltransferase 5 (PRMT5) as an Anticancer Target and Its Inhibitor Discovery” (J Med Chem, 2018)
Blank lines part the entries; values can stand above or below the compound they belong to.

Experiments:
[1] = target: T1, Protein arginine N-methyltransferase 5 (Homo sapiens, UniProt O14744); experiment: Inhibition of PRMT5 (unknown origin) at 50 uM by radioactive methylation assay
[2] = target: T1, Protein arginine N-methyltransferase 5; experiment: Inhibition of human PRMT5 expressed in insect cells co-expressing His-tagged MEP50 using Ser-Gly-Arg-Gly- Lys-Gly-Gly-Lys-Gly-Leu-Gly-Lys-Gly-Gly-Ala-Lys-Arg-His-Arg-Lys-Val-NH2 peptide as substrate after 4 hrs in presence of SAM by Transcreene EPIGEN methyltransferase assays
[3] = target: PRMT5/MEP50 complex (Homo sapiens) (UniProt O14744+Q9BQA1); experiment: (§1) Inhibition of human N-terminal FLAG-tagged PRMT5 (2 to end)/human N-terminal His-tagged MEP50 (2 to end) expressed in HEK293 cells at 50 uM using biotinylated H4 derived peptide as substrate preincubated for 15 mins followed by substrate addition measured after 60 mins ibn presence of [3H]SAM by liquid scintillation counting
[4] = tested on: Z-138; experiment: Antitumor activity against human Z138 cells xenografted in SCID mouse assessed as tumor growth inhibition at 200 mg/kg, po BID administered for 21 days; format: functional; details: Z-138, po, 504 h, read-out: TGI
[5] = Volume of distribution in mouse at 2 mg/kg, iv; format: ADME, organism-based; details: in vivo
[6] = Plasma clearance in mouse at 2 mg/kg, iv; format: ADME, organism-based
[7] = Oral bioavailability in mouse at 10 mg/kg; format: ADME, organism-based; details: in vivo
[8] = tested on: Maver1; experiment: Antitumor activity against human Maver1 cells xenografted in SCID mouse assessed as tumor growth inhibition at 200 mg/kg, po BID administered for 21 days; format: functional; details: 504 h, read-out: TGI
[9] = tested on: JeKo-1; experiment: Antiproliferative activity against human JeKo1 cells after 3 days by cell titer-glo luminescent cell viability assays; format: functional, cell-based; details: JeKo-1, 72 h
[10] = tested on: Z-138; experiment: Antiproliferative activity against human Z138 cells after 3 days by cell titer-glo luminescent cell viability assays; format: functional, cell-based; details: Z-138, 72 h
[11] = tested on: Maver1; experiment: Antiproliferative activity against human Maver1 cells after 3 days by cell titer-glo luminescent cell viability assays; format: functional, cell-based; details: Maver1, 72 h
[12] = target: T1, Protein arginine N-methyltransferase 5; experiment: Inhibition of PRMT5 (unknown origin) using H4R3 as substrate by HTRF assay
[13] = Antiproliferative activity against human Th1 cells by trypan blue exclusion assay; format: functional, cell-based
[14] = Antiproliferative activity against human TH2 cells by trypan blue exclusion assay; format: functional, cell-based
[15] = target: PRMT5/MEP50 complex (Homo sapiens, UniProt O14744); experiment: as §1, with “cells” for “cells at 50 uM”, “in” for “ibn”; format: cell-based
[16] = Plasma concentration in po dosed Sprague-Dawley rat administered as single dose; format: ADME, organism-based; details: in vivo
[17] = Plasma concentration in iv dosed Sprague-Dawley rat administered as single dose; format: ADME, organism-based; details: in vivo
[18] = target: T1, Protein arginine N-methyltransferase 5; experiment: Inhibition of human 6xHis-tagged PRMT5 expressed in bacterial expression system using histone H2A as substrate after 2 hrs in presence of by S-[methyl-3H]adenosylmethionine by liquid scintillation counting

T1 sequence (O14744 whole entry): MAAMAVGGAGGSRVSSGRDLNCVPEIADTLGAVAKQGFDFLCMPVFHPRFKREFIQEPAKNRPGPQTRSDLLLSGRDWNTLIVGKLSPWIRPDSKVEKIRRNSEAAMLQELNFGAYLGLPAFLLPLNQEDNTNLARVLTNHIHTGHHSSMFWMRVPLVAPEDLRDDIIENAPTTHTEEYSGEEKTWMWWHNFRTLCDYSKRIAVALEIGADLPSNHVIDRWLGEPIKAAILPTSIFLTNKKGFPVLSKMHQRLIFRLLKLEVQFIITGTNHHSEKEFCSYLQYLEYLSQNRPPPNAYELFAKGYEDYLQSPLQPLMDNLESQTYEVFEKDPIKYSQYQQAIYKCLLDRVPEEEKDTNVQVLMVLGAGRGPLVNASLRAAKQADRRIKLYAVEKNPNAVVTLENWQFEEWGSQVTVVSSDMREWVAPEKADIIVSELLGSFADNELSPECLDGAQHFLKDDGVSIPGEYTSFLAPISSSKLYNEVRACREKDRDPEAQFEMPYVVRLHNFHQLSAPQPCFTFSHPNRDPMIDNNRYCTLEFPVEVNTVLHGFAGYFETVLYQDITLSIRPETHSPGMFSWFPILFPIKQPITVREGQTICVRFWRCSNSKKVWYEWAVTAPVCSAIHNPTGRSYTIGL
Sequence of PRMT5/MEP50 complex (O14744 whole entry): as above
Sequence of PRMT5/MEP50 complex (Q9BQA1 whole entry, further chain): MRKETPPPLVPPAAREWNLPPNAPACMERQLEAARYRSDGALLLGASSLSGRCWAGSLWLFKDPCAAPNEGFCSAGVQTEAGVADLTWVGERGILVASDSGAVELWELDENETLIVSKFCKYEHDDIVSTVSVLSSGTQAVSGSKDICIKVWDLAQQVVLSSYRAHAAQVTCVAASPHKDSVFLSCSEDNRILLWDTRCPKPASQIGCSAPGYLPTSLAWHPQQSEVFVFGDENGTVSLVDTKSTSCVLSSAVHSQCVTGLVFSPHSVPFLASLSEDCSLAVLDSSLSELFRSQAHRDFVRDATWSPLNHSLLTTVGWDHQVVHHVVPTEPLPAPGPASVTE

SMILES: O=C(NC[C@H](O)CN1CCc2ccccc2C1)c1ccc(C(=O)N2CCOCC2)cc1
IC50 [2]: 0.109 µM

SMILES: CC(=O)N1CCC(Oc2nccc(C(=O)NC[C@@H](O)CNC3Cc4ccccc4C3)c2Cl)CC1
IC50 [2]: 0.105 µM

SMILES: O=C(NC[C@H](O)CN1CCc2ccccc2C1)c1cc(NC2COC2)ncn1
inhibition in vivo at 200 mg/kg [4]: > 93%
Vd [5]: 1.7 L/kg
clearance [6]: 30 mL/min/kg
bioavailability [7]: 69%
inhibition in vivo at 200 mg/kg [8]: > 93%

SMILES: OC(CNCc1c(OCc2ccccc2)ccc2ccccc12)c1ccccc1 (stereo not given)
EC50 [9]: 10.5 µM
EC50 [10]: 12.7 µM
EC50 [11]: 12.7 µM

SMILES: O=C(NC[C@H](O)CN1CCCCC1)c1cc(NC2COC2)ncn1
IC50 [12]: > 10 µM

SMILES: CCn1c2ccc(Br)cc2c2cc(CNCc3ccccc3OC)ccc21
IC50 [13]: 1.1 µM
IC50 [14]: 4 µM

SMILES: CCn1c2ccccc2c2cc(CNC3CCCc4ccccc43)ccc21 (stereo not given)
concentration [16]: 3.57 µM
concentration [17]: 7.88 µM
IC50 [18]: 0.517 µM

The remaining lines, values ahead:

inhibition [1]: 7.8%
SMILES: CCn1c2ccccc2c2cc(CNCc3ccccn3)ccc21

inhibition [3]: 2%
SMILES: OCCNCc1cccc2ccccc12

inhibition [3]: 69%
IC50 [15]: 35.6 µM
SMILES: OCCNCc1c(OCc2ccc(Cl)cc2)ccc2ccccc12
